Consider 9 compounds from ChEMBL document CHEMBL3228040 (J Med Chem, 1979).

Active and inactive are the calls of the source. The rule behind the calls is not given here.

For assay [1], the target named is Opioid receptor (Rattus norvegicus, UniProt P33533+P34975+P33535). Put plainly: Displacement of radiolabeled dihydromorphine from opioid receptor in rat brain homogenates. The class given is tissue-based.
Assay [2] concerns Rhesus monkey. Put plainly: Effect on physical dependence capacity in morphine-dependent rhesus monkey assessed as partial suppression of abstinence signs at 20 to 40 mg/kg by single-dose suppression test. It counts as functional, organism-based. The conditions noted are these: Macaca mulatta.
The species entered for assay [3] is Mus musculus. Put plainly: Analgesic activity in mouse by Nilsen assay. The class given is functional.
In assay [4] the test system is Mus musculus. Briefly: Analgesic activity in sc dosed mouse by hot plate assay. It counts as functional. A general note: Thermal pain tests record how soon the animal reacts.
For assay [5], the system named is Rhesus monkey. Briefly: Effect on physical dependence capacity in morphine-dependent rhesus monkey at 20 mg/kg by single-dose suppression test. The class given is functional, organism-based. Set-up: dose 20 mg/kg. Particulars: Macaca mulatta.
The species named for assay [6] is Mus musculus. Put plainly: (§1) Analgesic activity in mouse by tail flick assay. The class given is functional.
Assay [7] is filed under the species Mus musculus. Described as §1. It counts as functional, organism-based.
Assay [8] concerns Rhesus monkey. Put plainly: Effect on physical dependence capacity in morphine-dependent rhesus monkey at 1.2 mg/kg by single-dose suppression test. It counts as functional, organism-based. Set-up: dose 1.2 mg/kg. Particulars: Macaca mulatta.
The species entered for assay [9] is Mus musculus. Briefly: Analgesic activity in mouse assessed as inhibition of PPQ-induced writhing. The class given is functional. On the technique in general: Writhing tests count abdominal constrictions after an irritant is injected.
In assay [10] the test system is Rhesus monkey. Put plainly: Effect on physical dependence capacity in morphine-dependent rhesus monkey up to 16 mg/kg by single-dose suppression test. Set-up: dose 16 mg/kg. The class given is functional, organism-based. Particulars: Macaca mulatta.

In [1], `CCC(=O)C1(c2cccc(O)c2)CCN(CCC#N)CC1` came in with a 50% effective concentration (EC50) of 1500 nM. Also, the result in [2] was Active. In assay [3], this compound came in with a 50% effective dose (ED50) of over 50 mg/kg.
In [1], `CCC(=O)C1(c2cccc(O)c2)CCN(C)CC1` [KETOBEMIDONE] gave an EC50 of 2 nM. Also, the ED50 in [4] is 0.8 mg/kg.
Turning to `CCOC(=O)C1(c2ccccc2)CCN(CCC#N)CC1`, the EC50 in [1] came to 8000 nM. In assay [5], the result was inactive. Besides, in assay [4], the median effective dose (ED50) was 100 mg/kg.
Regarding `CCOC(=O)C1(c2ccccc2)CCN(C)CC1` [MEPERIDINE], the 50% effective dose (ED50) in assay [4] was found to be 4.7 mg/kg.
As to `CC1C2Cc3ccc(O)cc3C1(C)CCN2C` (racemic), in assay [1], the EC50 came to 9 nM. This compound displayed a median effective dose (ED50) in assay [4] of 1.18 mg/kg.
`CC[C@H]1C2Cc3ccc(O)cc3[C@@]1(C)CCN2CCC#N` (mixture of isomers): the ED50 stood at 0.8 mg/kg in assay [6], 0.09 mg/kg in [9] and 0.21 mg/kg in assay [4]. For the same compound, the concentration for a half-maximal effect (EC50) in assay [1] is reported as 4 nM. The inhibition entry in [7] was “inactive”. Further, the result in assay [8] was Active.
`CC[C@H]1C2Cc3ccc(O)cc3[C@@]1(C)CCN2CCC(N)=O` (mixture of isomers): the result in assay [6] and in [10] was inactive. Besides, in assay [1], the EC50 was 9 nM. Besides, the inhibition entry in assay [7] and in assay [9] was “inactive” throughout. In assay [4], it took a dose of 19.3 mg/kg to reach the 50% effect level (ED50).
On to `CC[C@H]1C2Cc3ccc(O)cc3[C@@]1(C)CCN2C` (mixture of isomers), for which the 50% effective dose (ED50) in assay [6] came out at 6.4 mg/kg; in assay [9], 0.2 mg/kg; in assay [4] it was 1.3 mg/kg. In [1], this compound had an EC50 of 15 nM. In addition, in assay [8], the result was Active.
Take `CN1CC[C@]23c4c5ccc(O)c4O[C@H]2[C@@H](O)C=C[C@H]3[C@H]1C5` [MORPHINE]: in [4], it took a dose of 1.2 mg/kg to reach the 50% effect level (ED50).

A word on the EC50: it is the concentration at which the effect is half-maximal. The ED50 is the dose at which the effect has come halfway, by size or by number of responders.
